Results taken from PubChem BioAssay AID2060894 (Molecular Pharmacology Branch, DTP, NCI, 2025).
“And” between values parts separate entries of the source, which are not always exact repeats. Equal values may be shown once.

System: K12877-001-R-J1-PDC complex spheroid viability
Assay: Anticancer human tumor K12877-001-R-J1-PDC patient-derived lung adenocarcinoma cell line growth inhibition [RAS]
Settings: for viability, T/C: stronger effect = lower value
Summary of the method: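 Tumour cells grown as complex spheroids with HUVEC endothelial cells and mesenchymal stem cells, treated with RAS pathway inhibitor combinations. Each agent spans half-log steps from near clinical Cmax, or 10 microM where Cmax is unknown.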

[1] = curve of first compound, second compound 0.0316 µM
[2] = curve of first compound, second compound 0.1 µM
[3] = curve of first compound, second compound 0.316 µM
[4] = curve of first compound, second compound 1 µM
[5] = curve of first compound, second compound 3.16 µM
[6] = curve of first compound, second compound 10 µM
[7] = second compound 0.0316 µM, first compound 0.00316 µM
[8] = second compound 0.0316 µM, first compound 0.01 µM
[9] = second compound 0.0316 µM, first compound 0.0316 µM
[10] = second compound 0.0316 µM, first compound 0.1 µM
[11] = second compound 0.0316 µM, first compound 0.316 µM
[12] = second compound 0.0316 µM, first compound 1 µM
[13] = second compound 0.1 µM, first compound 0.00316 µM
[14] = second compound 0.1 µM, first compound 0.01 µM
[15] = second compound 0.1 µM, first compound 0.0316 µM
[16] = second compound 0.1 µM, first compound 0.1 µM
[17] = second compound 0.1 µM, first compound 0.316 µM
[18] = second compound 0.1 µM, first compound 1 µM
[19] = second compound 0.316 µM, first compound 0.00316 µM
[20] = second compound 0.316 µM, first compound 0.01 µM
[21] = second compound 0.316 µM, first compound 0.0316 µM
[22] = second compound 0.316 µM, first compound 0.1 µM
[23] = second compound 0.316 µM, first compound 0.316 µM
[24] = second compound 0.316 µM, first compound 1 µM
[25] = second compound 1 µM, first compound 0.00316 µM
[26] = second compound 1 µM, first compound 0.01 µM
[27] = second compound 1 µM, first compound 0.0316 µM
[28] = second compound 1 µM, first compound 0.1 µM
[29] = second compound 1 µM, first compound 0.316 µM
[30] = second compound 1 µM, first compound 1 µM
[31] = second compound 3.16 µM, first compound 0.00316 µM
[32] = second compound 3.16 µM, first compound 0.01 µM
[33] = second compound 3.16 µM, first compound 0.0316 µM
[34] = second compound 3.16 µM, first compound 0.1 µM
[35] = second compound 3.16 µM, first compound 0.316 µM
[36] = second compound 3.16 µM, first compound 1 µM
[37] = second compound 10 µM, first compound 0.00316 µM
[38] = second compound 10 µM, first compound 0.01 µM
[39] = second compound 10 µM, first compound 0.0316 µM
[40] = second compound 10 µM, first compound 0.1 µM
[41] = second compound 10 µM, first compound 0.316 µM
[42] = second compound 10 µM, first compound 1 µM
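Also: spheroids exposed to agents for one week before readout.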

## CCN1CCN(Cc2ccc(Nc3ncc(F)c(-c4cc(F)c5nc(C)n(C(C)C)c5c4)n3)nc2)CC1 + C#Cc1c(F)ccc2cc(O)cc(-c3ncc4c(N5CC6CCC(C5)N6)nc(OCC56CCCN5CC(F)C6)nc4c3F)c12
[1]
  IC50: > 1 µM
[2]
  IC50: > 1 µM
[3]
  IC50: > 1 µM
[4]
  IC50: > 1 µM
[5]
  IC50: > 1 µM
[6]
  IC50: > 1 µM
[7]
  viability, T/C: 106%
[8]
  viability, T/C: 101%
[9]
  viability, T/C: 106%
[10]
  viability, T/C: 85.6%
[11]
  viability, T/C: 118%
[12]
  viability, T/C: 97.2%
[13]
  viability, T/C: 97.9%
[14]
  viability, T/C: 102%
[15]
  viability, T/C: 113%
[16]
  viability, T/C: 97.8%
[17]
  viability, T/C: 118%
[18]
  viability, T/C: 88.4%
[19]
  viability, T/C: 115%
[20]
  viability, T/C: 107%
[21]
  viability, T/C: 98.6%
[22]
  viability, T/C: 99.2%
[23]
  viability, T/C: 109%
[24]
  viability, T/C: 108%
[25]
  viability, T/C: 109%
[26]
  viability, T/C: 113%
[27]
  viability, T/C: 96.7%
[28]
  viability, T/C: 104%
[29]
  viability, T/C: 108%
[30]
  viability, T/C: 82.2%
[31]
  viability, T/C: 108%
[32]
  viability, T/C: 105%
[33]
  viability, T/C: 97%
[34]
  viability, T/C: 94.1%
[35]
  viability, T/C: 76.1%
[36]
  viability, T/C: 83.9%
[37]
  viability, T/C: 105%
[38]
  viability, T/C: 84.8%
[39]
  viability, T/C: 90.4%
[40]
  viability, T/C: 92.3%
[41]
  viability, T/C: 87.2%
[42]
  viability, T/C: 56.7%

## C[C@@H](NC(=O)c1ncnc(N)c1Cl)c1ncc(C(=O)Nc2cc(C(F)(F)F)c(Cl)cn2)s1 + CCn1c(-c2cccnc2C(C)OC)c2c3cc(ccc31)N1CCOC(CC(NC(=O)C(C(C)C)N(C)C(=O)C3(F)CCN(C(=O)C#CC(C)(C)N(C)C)CC3)C(=O)N3CCCC(N3)C(=O)OCC(C)(C)C2)C1
Curve of first compound, second compound 0.000949 µM
  IC50: > 10 µM
Curve of first compound, second compound 0.003 µM
  IC50: > 10 µM
Curve of first compound, second compound 0.00949 µM
  IC50: > 10 µM
Curve of first compound, second compound 0.03 µM
  IC50: > 10 µM
Curve of first compound, second compound 0.0949 µM
  IC50: > 10 µM
Curve of first compound, second compound 0.3 µM
  IC50: > 10 µM
Second compound 0.000949 µM, first compound 0.0316 µM
  viability, T/C: 84.5%
Second compound 0.000949 µM, first compound 0.1 µM
  viability, T/C: 84.7%
Second compound 0.000949 µM, first compound 0.316 µM
  viability, T/C: 77.3%
Second compound 0.000949 µM, first compound 1 µM
  viability, T/C: 85.3%
Second compound 0.000949 µM, first compound 3.16 µM
  viability, T/C: 74.4%
Second compound 0.000949 µM, first compound 10 µM
  viability, T/C: 82.7%
Second compound 0.003 µM, first compound 0.0316 µM
  viability, T/C: 80.2%
Second compound 0.003 µM, first compound 0.1 µM
  viability, T/C: 79.2%
Second compound 0.003 µM, first compound 0.316 µM
  viability, T/C: 72.6%
Second compound 0.003 µM, first compound 1 µM
  viability, T/C: 82%
Second compound 0.003 µM, first compound 3.16 µM
  viability, T/C: 91.2%
Second compound 0.003 µM, first compound 10 µM
  viability, T/C: 76.8%
Second compound 0.00949 µM, first compound 0.0316 µM
  viability, T/C: 84.3%
Second compound 0.00949 µM, first compound 0.1 µM
  viability, T/C: 74.9%
Second compound 0.00949 µM, first compound 0.316 µM
  viability, T/C: 72%
Second compound 0.00949 µM, first compound 1 µM
  viability, T/C: 73.4%
Second compound 0.00949 µM, first compound 3.16 µM
  viability, T/C: 81.3%
Second compound 0.00949 µM, first compound 10 µM
  viability, T/C: 78.8%
Second compound 0.03 µM, first compound 0.0316 µM
  viability, T/C: 80.3%
Second compound 0.03 µM, first compound 0.1 µM
  viability, T/C: 81.1%
Second compound 0.03 µM, first compound 0.316 µM
  viability, T/C: 71.3%
Second compound 0.03 µM, first compound 1 µM
  viability, T/C: 88.2%
Second compound 0.03 µM, first compound 3.16 µM
  viability, T/C: 89.9%
Second compound 0.03 µM, first compound 10 µM
  viability, T/C: 87.5%
Second compound 0.0949 µM, first compound 0.0316 µM
  viability, T/C: 79.5%
Second compound 0.0949 µM, first compound 0.1 µM
  viability, T/C: 77.8%
Second compound 0.0949 µM, first compound 0.316 µM
  viability, T/C: 78.4%
Second compound 0.0949 µM, first compound 1 µM
  viability, T/C: 75.3%
Second compound 0.0949 µM, first compound 3.16 µM
  viability, T/C: 89.7%
Second compound 0.0949 µM, first compound 10 µM
  viability, T/C: 72%
Second compound 0.3 µM, first compound 0.0316 µM
  viability, T/C: 72%
Second compound 0.3 µM, first compound 0.1 µM
  viability, T/C: 71.7%
Second compound 0.3 µM, first compound 0.316 µM
  viability, T/C: 64.3%
Second compound 0.3 µM, first compound 1 µM
  viability, T/C: 69.8%
Second compound 0.3 µM, first compound 3.16 µM
  viability, T/C: 69.3%
Second compound 0.3 µM, first compound 10 µM
  viability, T/C: 52.9%

## Nc1ccn(C2OC(CO)C(O)C2(F)F)c(=O)n1 (configuration not stated) + C#Cc1c(F)ccc2cc(O)cc(-c3ncc4c(N5CC6CCC(C5)N6)nc(OCC56CCCN5CC(F)C6)nc4c3F)c12
[1]
  IC50: 0.0187 µM
[2]
  IC50: 0.017 µM
[3]
  IC50: 0.0178 µM
[4]
  IC50: 0.0176 µM
[5]
  IC50: 0.0174 µM
[6]
  IC50: 0.0162 µM
[7]
  viability, T/C: 98.9%
[8]
  viability, T/C: 102%
[9]
  viability, T/C: 7.92%
[10]
  viability, T/C: 5.24%
[11]
  viability, T/C: 5.93%
[12]
  viability, T/C: 6.36%
[13]
  viability, T/C: 119%
[14]
  viability, T/C: 85.9%
[15]
  viability, T/C: 7.72%
[16]
  viability, T/C: 5.87%
[17]
  viability, T/C: 5.86%
[18]
  viability, T/C: 5.63%
[19]
  viability, T/C: 102%
[20]
  viability, T/C: 92.7%
[21]
  viability, T/C: 7.04%
[22]
  viability, T/C: 5.27%
[23]
  viability, T/C: 5.95%
[24]
  viability, T/C: 6.35%
[25]
  viability, T/C: 102%
[26]
  viability, T/C: 88.8%
[27]
  viability, T/C: 9.52%
[28]
  viability, T/C: 5.65%
[29]
  viability, T/C: 6.02%
[30]
  viability, T/C: 6.24%
[31]
  viability, T/C: 106%
[32]
  viability, T/C: 89%
[33]
  viability, T/C: 8.02%
[34]
  viability, T/C: 4.94%
[35]
  viability, T/C: 5.19%
[36]
  viability, T/C: 5.82%
[37]
  viability, T/C: 101%
[38]
  viability, T/C: 79.4%
[39]
  viability, T/C: 8.95%
[40]
  viability, T/C: 5.43%
[41]
  viability, T/C: 6.72%
[42]
  viability, T/C: 5.24%

## C=CC(=O)Nc1cc(Nc2nccc(-c3cn(C)c4ccccc34)n2)c(OC)cc1N(C)CCN(C)C + C#Cc1c(F)ccc2cc(O)cc(-c3ncc4c(N5CC6CCC(C5)N6)nc(OCC56CCCN5CC(F)C6)nc4c3F)c12
[1]
  IC50: > 1 µM
[2]
  IC50: > 1 µM
[3]
  IC50: > 1 µM
[4]
  IC50: > 1 µM
[5]
  IC50: > 1 µM
[6]
  IC50: > 1 µM
[7]
  viability, T/C: 95.4%
[8]
  viability, T/C: 107%
[9]
  viability, T/C: 108%
[10]
  viability, T/C: 106%
[11]
  viability, T/C: 113%
[12]
  viability, T/C: 94.3%
[13]
  viability, T/C: 108%
[14]
  viability, T/C: 102%
[15]
  viability, T/C: 102%
[16]
  viability, T/C: 102%
[17]
  viability, T/C: 119%
[18]
  viability, T/C: 97.7%
[19]
  viability, T/C: 103%
[20]
  viability, T/C: 108%
[21]
  viability, T/C: 106%
[22]
  viability, T/C: 106%
[23]
  viability, T/C: 108%
[24]
  viability, T/C: 102%
[25]
  viability, T/C: 105%
[26]
  viability, T/C: 99.4%
[27]
  viability, T/C: 101%
[28]
  viability, T/C: 115%
[29]
  viability, T/C: 101%
[30]
  viability, T/C: 95.3%
[31]
  viability, T/C: 107%
[32]
  viability, T/C: 100%
[33]
  viability, T/C: 106%
[34]
  viability, T/C: 102%
[35]
  viability, T/C: 87.5%
[36]
  viability, T/C: 95%
[37]
  viability, T/C: 106%
[38]
  viability, T/C: 95.1%
[39]
  viability, T/C: 89.1%
[40]
  viability, T/C: 94%
[41]
  viability, T/C: 81.4%
[42]
  viability, T/C: 79.2%

## NC1c2ccccc2OC12CCN(c1cnc3c(N4CCCc5ncccc54)n[nH]c3n1)CC2 (configuration not stated)
Compound 0.0316 µM
  viability, T/C: 100% [middle of 4 runs]
Compound 0.1 µM
  viability, T/C: 97.9% [middle of 4 runs]
Compound 10 µM
  viability, T/C: 51.5% [middle of 4 runs]
Curve of compound
  IC50: > 10 µM and 3.82 µM
